Data set [1] can be described thus: hygroscopicity / Dynamic Vapor Sorption (DVS) of hydrochloride salt crystal forms. The conditions noted are these: for hygroscopicity (Crystal Form Table) / hygroscopicity: hydrochloride salt crystal forms; for water absorbed eventually: 90% RH. The format is physicochemical. As to the method: Dynamic Vapor Sorption (DVS) was done at 26° C.
Data set [2] is described as follows: solubility in water of hydrochloride salt crystal forms. The format is physicochemical.
Data set [3] has as its target T1, alpha7 nicotinic acetylcholine receptor (Rattus norvegicus, UniProt Q05941).
T1 construct: expressed in transfected cells
Nature of the data set: functional FLIPR assay, alpha7 nAChR stably expressed in GH4C1 cells. The format is cell-based. The note with it: agonist, concentration range 0.001 to 30 microM.
Source text: Rat GH4C1 cells were then transfected with the rat receptor, cloned and analyzed for functional alpha7 nicotinic receptor expression employing a FLIPR assay to measure changes in intracellular calcium concentrations.
The FLIPR system allows the measurements of real time Ca^2+-concentration changes in living cells using a Ca^2+ sensitive fluorescence dye (such as Fluo4). This instrument enables the screening for agonists and antagonists for alpha 7 nAChR channels stably expressed in GH4C1 cells.
GH4C1 cells stably transfected with rat-alpha7-nAChR (see above) were used. These cells are poorly adherent and therefore pretreatment of flasks and plates with poly-D-lysine was carried out. Cells are grown in 150 cm^2 T-flasks, filled with 30 ml of medium at 37° C. and 5% CO2.
EC50 and IC50 values were calculated using the IDBS XLfit4.1 software package employing a sigmoidal concentration-response (variable slope) equation: Y=Bottom+((Top−Bottom)/(1+((EC50/X)^HillSlope))
The compounds were tested using the functional FLIPR primary screening assay employing the stable recombinant GH4C1 cell line expressing the alpha7 nAChR. Hits identified were validated further by generation of concentration-response curves.

For orientation: melting point means the temperature, or range, at which the solid turns liquid. One may read the EC50 as the concentration at which the effect is half-maximal.

Where a name gives a salt, the structure may show the parent alone.

T1 sequence (Q05941 23-502): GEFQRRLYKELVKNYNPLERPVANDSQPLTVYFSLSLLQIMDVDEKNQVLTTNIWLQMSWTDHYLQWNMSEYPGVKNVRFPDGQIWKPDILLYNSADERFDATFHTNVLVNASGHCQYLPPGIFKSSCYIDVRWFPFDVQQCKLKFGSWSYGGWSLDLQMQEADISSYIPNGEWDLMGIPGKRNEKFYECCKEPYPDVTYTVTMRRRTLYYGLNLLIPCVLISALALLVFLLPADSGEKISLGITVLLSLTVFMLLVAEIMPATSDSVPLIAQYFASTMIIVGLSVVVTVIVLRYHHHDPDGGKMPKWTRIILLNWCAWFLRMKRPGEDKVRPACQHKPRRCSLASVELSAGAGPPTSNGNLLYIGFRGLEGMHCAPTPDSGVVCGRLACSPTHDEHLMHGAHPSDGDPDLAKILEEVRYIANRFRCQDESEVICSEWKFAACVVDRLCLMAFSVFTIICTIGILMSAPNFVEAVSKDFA

As to `COc1ccc(-c2cc(NC(=O)CCCCN3CCCN(C(C)=O)CC3)[nH]n2)cc1` [Crystal Form V, 5-(4-Acetyl-[1,4]diazepan-1-yl)-pentanoic acid [5-(4-methoxy-phenyl)-2H-pyrazol-3-yl]-amide], the water uptake result in data set [1] (at RH 50%) is “(7% at RH”. Also, the “hygroscopicity (Crystal Form Table)” value in data set [1] is “Hygroscopic”.
`COc1ccc(-c2cc(NC(=O)CCCCN3CCCN(C(C)=O)CC3)n[nH]2)cc1.Cl` [Form I, 5-(4-acetyl-1,4-diazepan-1-yl)-N-(5-(4-methoxyphenyl)-1H-pyrazol-3-yl)pentanamide hydrochloric salt Form I]: in data set [1] (DVS at 26° C.), the water absorbed eventually result is listed as “up to 2%” and the “relative humidity at which the form picks up moisture” value is “about 50%”. In data set [1] (at 70-100% RH, lost without significant hysteresis on decreasing RH), the moisture gain result is on record as “at least 12%”. Besides, in data set [1] (equilibrated at RH less than or equal to 70%), the moisture gain result is recorded as “about 0.5%”. In addition, the “hygroscopicity” value in data set [1] was “relatively non-hygroscopic”. Moreover, in data set [2], the solubility in water result is on record as “considerably soluble in water”.
`COc1ccc(-c2cc(NC(=O)CCCCN3CCCN(C(C)=O)CC3)[nH]n2)cc1` (as salt: hydrochloric acid salt) [5-(4-Acetyl-[1,4]diazepan-1-yl)-pentanoic acid [5-(4-methoxy-phenyl)-2H-pyrazol-3-yl]-amide] had a melting point of 185 °C.
Turning to `COc1ccc(-c2cc(NC(=O)CCCCN3CCCN(C(C)=O)CC3)n[nH]2)cc1.Cl` [Form II, 5-(4-acetyl-1,4-diazepan-1-yl)-N-(5-(4-methoxyphenyl)-1H-pyrazol-3-yl)pentanamide hydrochloric salt Form II], in data set [1] (DVS at 26° C.), the water absorbed eventually entry was “up to 7%” and the “relative humidity at which the form picks up moisture” value is reported as “about 20%”. In data set [1] (RH 0%, DVS at 26° C.), the “water held at low RH” value came to 2%. In addition, in data set [1], the “hygroscopicity” value is on record as “non-hygroscopic”. For the same compound, in data set [2], the solubility in water result was “considerably soluble in water”.
Turning to `COc1ccc(-c2cc(NC(=O)CCCCN3CCCN(C(C)=O)CC3)n[nH]2)cc1.Cl` [mono-HCl salt, 5-(4-Acetyl-[1,4]diazepan-1-yl)-pentanoic acid [5-(4-methoxy-phenyl)-1H-pyrazol-3-yl]-amide (mono hydrochloride salt)], in data set [1], the “form change after DVS test” value is “NO form change”.
Turning to `COc1ccc(-c2cc(NC(=O)CCCCN3CCCN(C(C)=O)CC3)[nH]n2)cc1` (as salt: hydrochloride) [Example 4, 5-(4-Acetyl-[1,4]diazepan-1-yl)-pentanoic acid [5-(4-methoxy-phenyl)-2H-pyrazol-3-yl]-amide], the melting point fell in the range of 132 to 133 °C.
`COc1ccc(-c2cc(NC(=O)CCCCN3CCCN(C(C)=O)CC3)[nH]n2)cc1` [Crystal Form III, 5-(4-Acetyl-[1,4]diazepan-1-yl)-pentanoic acid [5-(4-methoxy-phenyl)-2H-pyrazol-3-yl]-amide]: the “hygroscopicity (Crystal Form Table)” value in data set [1] is on record as “Hygroscopic”.
Take `C[N+]1(C)CCN(c2ccccc2)CC1` [DMPP]: it took 0.98 ± 0.47 µM to reach a half-maximal effect in data set [3] (EC50).

The values are drawn from patent publication US8163729B2 (Wyeth, priority 2007, dated 2012).
